For the assay, the system named is A. galli (intestinal roundworm of chicken) larval stage 3; O. dentatum (nodular worm of swine) larval stages 3 and 4. Nature of the assay: Activity against Ascaridia galli and Oesophagostomum dentatum larvae in vitro (minimum effective concentration). It counts as cell-based.
[1] abbreviates: read-out: MEC (minimum effective concentration) against one or more of the tested nematodes, in vitro, one or more of A. galli L3, O. dentatum L3, L4, threshold 1 μM.
Setting [2] is: read-out: MEC (minimum effective concentration) against one or more of the tested nematodes, in vitro, one or more of A. galli L3, O. dentatum L3, L4, threshold 7 μM.
[3] abbreviates: read-out: MEC (minimum effective concentration) against two or more of the tested nematodes, in vitro, two or more of A. galli L3, O. dentatum L3, L4, threshold 1 μM.
Where [4] appears, read: in vitro, one or more of A. galli L3, O. dentatum L3, L4, threshold 1 μM, read-out: MEC (minimum effective concentration) against one or more of the tested nematodes.
Where [5] appears, read: in vitro, one or more of A. galli L3, O. dentatum L3, L4, threshold 7 μM, read-out: MEC (minimum effective concentration) against one or more of the tested nematodes.
Where [6] appears, read: in vitro, two or more of A. galli L3, O. dentatum L3, L4, threshold 1 μM, read-out: MEC (minimum effective concentration) against two or more of the tested nematodes.

Like-named read-outs stand apart in the source and are kept apart here.

As for `O=C(CC(=O)N1CCN(c2ccc(C(F)(F)F)cc2)CC1)N1CCC(Nc2ccc([N+](=O)[O-])c(C(F)(F)F)c2)CC1` [Example 78, 1-[4-(4-nitro-3-trifluoromethyl-phenylamino)-piperidin-1-yl]-3-[4-(4-trifluoromethyl-phenyl)-piperazin-1-yl]-propane-1,3-dione], the minimal effective concentration was below 1 µM under setting [1], below 7 µM under setting [2] and below 1 µM under setting [3].
Consider `O=C(CCCN1CCN(c2ccc(C(F)(F)F)cc2)CC1)N1CCC(Oc2ccc([N+](=O)[O-])c(C(F)(F)F)c2)CC1` [Example 79, 1-[4-(4-nitro-3-trifluoromethyl-phenoxy)-piperidin-1-yl]-4-[4-(4-trifluoromethyl-phenyl)-piperazin-1-yl]-butan-1-one], for which the minimal effective concentration is below 1 µM under setting [1], below 7 µM under setting [2] and below 1 µM under setting [3].
Turning to `O=C(CCCN1CCN(c2ccc(C(F)(F)F)cc2)CC1)N1CCC(Nc2cccc(C(F)(F)F)c2)CC1` [Example 81, 1-[4-(3-trifluoromethyl-phenylamino)-piperidin-1-yl]-4-[4-(4-trifluoromethyl-phenyl)-piperazin-1-yl]-butan-1-one], the minimal effective concentration is below 1 µM under setting [1], below 7 µM under setting [2] and below 1 µM under setting [3].
Turning to `N#Cc1ccc(NC2CCN(C(=O)CCCN3CCN(c4ccc(C(F)(F)F)cc4)CC3)CC2)cc1` [Example 83, 4-(1-{4-[4-(4-trifluoromethyl-phenyl)-piperazin-1-yl]-butyryl}-piperidin-4-ylamino)-benzonitrile], the minimal effective concentration by setting is: under setting [1], below 1 µM; under setting [2], below 7 µM; under setting [3], below 1 µM.
Turning to `O=C(CCCN1CCN(c2ccc(C(F)(F)F)cc2)CC1)N1CCC(Nc2ccc([N+](=O)[O-])nc2)CC1` [Example 95, 1-[4-(6-nitro-pyridin-3-ylamino)-piperidin-1-yl]-4-[4-(4-trifluoromethyl-phenyl)-piperazin-1-yl]-butan-1-one], the minimal effective concentration by setting is: under setting [1], below 1 µM; under setting [2], below 7 µM; under setting [3], below 1 µM.
For the compound `O=C(CCCN1CCN(c2ccc(C(F)(F)F)cc2)CC1)N1CCC(Nc2ccc([N+](=O)[O-])cn2)CC1` [Example 98, 1-[4-(5-nitro-pyridin-2-ylamino)-piperidin-1-yl]-4-[4-(4-trifluoromethyl-phenyl)-piperazin-1-yl]-butan-1-one], the minimal effective concentration under setting [1] is below 1 µM, the minimal effective concentration under setting [2] is below 7 µM and the minimal effective concentration under setting [3] is below 1 µM.
Take `Cc1nc(NC2CCN(C(=O)CCCN3CCN(c4ccc(C(F)(F)F)cc4)CC3)CC2)ccc1[N+](=O)[O-]` [Example 101, 1-[4-(6-methyl-5-nitro-pyridin-2-ylamino)-piperidin-1-yl]-4-[4-(4-trifluoromethyl-phenyl)-piperazin-1-yl]-butan-1-one]: the minimal effective concentration is, setting by setting: under setting [1], below 1 µM; under setting [2], below 7 µM; under setting [3], below 1 µM.
As for `N#Cc1ccc(NC2CCN(C(=O)CCCN3CCN(c4ccc(C(F)(F)F)cc4)CC3)CC2)cc1Cl` [Example 105, 2-chloro-4-(1-{4-[4-(4-trifluoromethyl-phenyl)-piperazin-1-yl]-butyryl}-piperidin-4-ylamino)-benzonitrile], the minimal effective concentration by setting is: under setting [1], below 1 µM; under setting [2], below 7 µM; under setting [3], below 1 µM.
`CC(C)(C)c1ccc(N2CC3CN(CCC(=O)N4CCC(Nc5ccc([N+](=O)[O-])c(C(F)(F)F)c5)CC4)CC3C2)cc1` (centres unmarked) [Example 128, 3-[5-(4-tert-butyl-phenyl)-hexahydro-pyrrolo[3,4-c]pyrrol-2-yl]-1-[4-(4-nitro-3-trifluoromethyl-phenylamino)-piperidin-1-yl]-propan-1-one]: the minimal effective concentration by setting is: under setting [1], below 1 µM; under setting [2], below 7 µM; under setting [3], below 1 µM.
As to `CC(CN1CCN(c2ccc(C(C)(C)C)cc2)CC1)C(=O)N1CCC(Nc2ccc([N+](=O)[O-])c(C(F)(F)F)c2)CC1` (centres unmarked) [Example 130, 3-[4-(4-tert-butyl-phenyl)-piperazin-1-yl]-2-methyl-1-[4-(4-nitro-3-trifluoromethyl-phenylamino)-piperidin-1-yl]-propan-1-one], the minimal effective concentration is below 1 µM under setting [1], below 7 µM under setting [2] and below 1 µM under setting [3].
As for `CC(C)(C)c1ccc(N2CCC(CCCC(=O)N3CCC(Nc4ccc([N+](=O)[O-])c(C(F)(F)F)c4)CC3)CC2)cc1` [Example 137, 4-[1-(4-tert-butyl-phenyl)-piperidin-4-yl]-1-[4-(4-nitro-3-trifluoromethyl-phenylamino)-piperidin-1-yl]-butan-1-one], the minimal effective concentration was below 1 µM under setting [1], below 7 µM under setting [2] and below 1 µM under setting [3].
Consider `O=C(CCC1CCN(c2ccc(C(F)(F)F)cc2)CC1)N1CCC(Nc2ccc([N+](=O)[O-])c(C(F)(F)F)c2)CC1` [Example 141, 1-[4-(4-nitro-3-trifluoromethyl-phenylamino)-piperidin-1-yl]-3-[1-(4-trifluoromethyl-phenyl)-piperidin-4-yl]-propan-1-one], for which the minimal effective concentration under setting [1] was below 1 µM, the minimal effective concentration under setting [2] was below 7 µM and the minimal effective concentration under setting [3] was below 1 µM.
Take `O=C(CCC1CCN(c2ccc(Cl)cc2)CC1)N1CCC(Nc2ccc([N+](=O)[O-])c(C(F)(F)F)c2)CC1` [Example 144, 3-[1-(4-chloro-phenyl)-piperidin-4-yl]-1-[4-(4-nitro-3-trifluoromethyl-phenylamino)-piperidin-1-yl]-propan-1-one]: the minimal effective concentration under setting [1] was below 1 µM, the minimal effective concentration under setting [2] was below 7 µM and the minimal effective concentration under setting [3] is below 1 µM.
`CC(C)(C)c1ccc(N2CCC(CCC(=O)N3CCC(Nc4ccc([N+](=O)[O-])c(C(F)(F)F)c4)CC3)CC2)cc1` [Example 147, 3-[1-(4-tert-butyl-phenyl)-piperidin-4-yl]-1-[4-(4-nitro-3-trifluoromethyl-phenylamino)-piperidin-1-yl]-propan-1-one]: the minimal effective concentration under setting [1] is below 1 µM, the minimal effective concentration under setting [2] was below 7 µM and the minimal effective concentration under setting [3] was below 1 µM.
As to `O=C(CCCN1CCN(c2ccc(C(F)(F)F)nc2)CC1)N1CCC(Nc2ccc([N+](=O)[O-])c(C(F)(F)F)c2)CC1` [Example 149, 1-[4-(4-nitro-3-trifluoromethyl-phenylamino)-piperidin-1-yl]-4-[4-(6-trifluoromethyl-pyridin-3-yl)-piperazin-1-yl]-butan-1-one], the minimal effective concentration under setting [1] was below 1 µM, the minimal effective concentration under setting [2] was below 7 µM and the minimal effective concentration under setting [3] is below 1 µM.
As to `O=C(CCCN1CCN(c2nnc(C(F)(F)F)s2)CC1)N1CCC(Nc2ccc([N+](=O)[O-])c(C(F)(F)F)c2)CC1` [Example 153, 1-[4-(4-nitro-3-trifluoromethyl-phenylamino)-piperidin-1-yl]-4-[4-(5-trifluoromethyl-1,3,4-thiadiazol-2-yl)-piperazin-1-yl]-butan-1-one], the minimal effective concentration runs as follows: under setting [1], below 1 µM; under setting [2], below 7 µM; under setting [3], below 1 µM.
`N#Cc1ccc(NC2CCN(C(=O)CCCC3CCN(c4ccc(C(F)(F)F)cc4)CC3)CC2)cc1C(F)(F)F` [Example 156, 2-trifluoromethyl-4-(1-{4-[1-(4-trifluoromethyl-phenyl)-piperidin-4-yl]-butyryl}-piperidin-4-ylamino)-benzonitrile]: the minimal effective concentration is, setting by setting: under setting [4], below 1 µM; under setting [5], below 7 µM; under setting [6], below 1 µM.
As for `CC(C)(C)c1ccc(N2CCCN(CCCC(=O)N3CCC(Nc4ccc([N+](=O)[O-])c(C(F)(F)F)c4)CC3)CC2)cc1` [Example 163, 4-[4-(4-tert-butyl-phenyl)-[1,4]diazepan-1-yl]-1-[4-(4-nitro-3-trifluoromethyl-phenylamino)-piperidin-1-yl]-butan-1-one], the minimal effective concentration by setting is: under setting [1], below 1 µM; under setting [2], below 7 µM; under setting [3], below 1 µM.
As to `CC(C)(C)c1ccc(N2CCN(CCCC(=O)N3CC[C@@H](Nc4ccc([N+](=O)[O-])c(C(F)(F)F)c4)C3)CC2)cc1` [Example 168, 4-[4-(4-tert-butyl-phenyl)-piperazin-1-yl]-1-[(R)-3-(4-nitro-3-trifluoromethyl-phenylamino)-pyrrolidin-1-yl]-butan-1-one], the minimal effective concentration runs as follows: under setting [1], below 1 µM; under setting [2], below 7 µM; under setting [3], below 1 µM.
Take `O=C(CCN1CCN(c2ccccc2)CC1)N1CCC(Nc2ccc([N+](=O)[O-])c(C(F)(F)F)c2)CC1` [Example 169]: under setting [5], the minimal effective concentration is below 7 µM.
As for `O=C(CCN1CCN(c2ccccc2)CC1)N1CCC(Nc2ccc([N+](=O)[O-])c(C(F)(F)F)c2)CC1` [Example 171], the minimal effective concentration was below 1 µM under setting [4] and below 1 µM under setting [6].
On to `O=C(COC1CCN(c2ccc([N+](=O)[O-])c(C(F)(F)F)c2)CC1)N1CCN(c2ccc(Cl)cc2)CC1` [Example 179], for which the minimal effective concentration under setting [4] is below 1 µM.
As for `N#Cc1ccc(N2CCN(C(=O)COC3CCN(c4ccc([N+](=O)[O-])c(C(F)(F)F)c4)CC3)CC2)cc1` [Example 180], under setting [4], the minimal effective concentration is below 1 µM.

For the origin of these results see US9096524B2, “Anthelmintic agents and their use” (Intervet International B.V., priority 2009, dated 2015).
